Laboratory results: patent publication US6596271B2, “Insect control method with genetically engineered biopesticides” (priority 1996, dated 2003)
Marks after values point to notes of the source that are not given here.

Key:
[1] = tested on: neonate larvae of H. virescens; assay: Time-response of neonate larvae to NPVs with low concentrations of classical insecticides (droplet feeding, treated vials); type: in vivo, Heliothis virescens; details: 2000 PIBs and/or LC10-LC20 (24 h) insecticide
Text: For example, two of the compounds studied were pyrethroids, […]. In our study we found a subadditive response when low rates of allethrin or cypermethrin were combined with wild-type AcNPV.

[2] = tested on: neonate larvae of H. virescens; type: in vivo, Heliothis virescens; details: at the μg insecticide/vial of Table 4
Text: As indicated previously, these studies have emphasized the effects of combinations of viral and chemical insecticides on LT50, but the same approaches could be applied to dose as well as time. […] In practice a variety of factors would influence the rates used, including the cost and availability of the biological and chemical pesticide, environmental concerns, level of resistant populations in the field, and other pest management considerations.
Two of the compounds studied were pyrethroids, allethrin (Type I pyrethroid) or cypermethrin (Type II pyrethroid). In our study we found a subadditive response when low rates of allethrin or cypermethrin were combined with wild-type AcNPV.

SMILES: CC1(C)C(C=C(Cl)Cl)C1C(=O)OC(C#N)c1cccc(Oc2ccccc2)c1 (centres unmarked) [Cypermethrin]
- Actual Kill Time (LT50, h) [1]: 124 h
- LT10 (h; 95% CL) [1]: 17.1 (7.99-24.8) h
- LT50 (h; 95% CL) [1]: 124 (97.5-195) h
- LT90 (h; 95% CL) [1]: 902 (436-4190) h
- % Mortality at 24 hours [2]: 11.8%

SMILES: O=S1OCC2C(CO1)C1(Cl)C(Cl)=C(Cl)C2(Cl)C1(Cl)Cl (centres unmarked) [Endosulfan]
- Actual Kill Time (LT50, h) [1]: 73.3 h
- LT10 (h; 95% CL) [1]: 10.4 (3.75-17.3) h
- LT50 (h; 95% CL) [1]: 73.3 (61.0-90.3) h
- LT90 (h; 95% CL) [1]: 514 (296-1580) h
- % Mortality at 24 hours [2]: 17.5%

SMILES: Clc1ccc(C(c2ccc(Cl)cc2)C(Cl)(Cl)Cl)cc1 [DDT]
- Actual Kill Time (LT50, h) [1]: 96.7 h
- LT10 (h; 95% CL) [1]: 12.6 (3.90-23.8) h
- LT50 (h; 95% CL) [1]: 96.7 (73.5-165) h
- LT90 (h; 95% CL) [1]: 740 (318-10320) h
- % Mortality at 24 hours [2]: 18.8%

SMILES: C=CCC1=C(C)C(OC(=O)C2C(C=C(C)C)C2(C)C)CC1=O (centres unmarked) [Allethrin]
- Actual Kill Time (LT50, h) [1]: 132 h
- LT10 (h; 95% CL) [1]: 17.3 (11.5-22.5) h
- LT50 (h; 95% CL) [1]: 132 (106-185) h
- LT90 (h; 95% CL) [1]: 1000 (552-2680) h
- % Mortality at 24 hours [2]: 14.0%

SMILES: CNC(=O)ON=C(C)SC [Methomyl]
- Actual Kill Time (LT50, h) [1]: 358 h
- LT10 (h; 95% CL) [1]: 4.84 (0.12-13.1) h
- LT50 (h; 95% CL) [1]: 358 (182-4070) h
- LT90 (h; 95% CL) [1]: 26563 (2870-1.25 × 10^8) h
- % Mortality at 24 hours [2]: 20.8%

SMILES: CCCSP(=O)(OCC)Oc1ccc(Br)cc1Cl (centres unmarked) [Profenofos]
- Actual Kill Time (LT50, h) [1]: 401 h
- LT10 (h; 95% CL) [1]: 8.10 (2.61-17.5) h
- LT50 (h; 95% CL) [1]: 401 (260-676) h
- % Mortality at 24 hours [2]: 16.3%
